From US5196577A, “Compound marked with tritium, its preparation and its use in particular in the determination of the affinity of retinoids for their nuclear receptors and their cytosolic binding protein” (Centre International de Recherches Dermatologiques, priority 1988, dated 1993)
Entries after “also recorded” stand apart in the source; their conditions may differ. Like-named read-outs stand apart in the source and are kept apart here.

Tests used:
[1] = test system: F9 cells; assay: Production of secreted plasminogen activator by differentiating F9 cells (biological activity, CPA50); format: cell-based, murine; details: for EC50: Mus musculus, read-out: BIOLOGICAL ACTIVITY CPA50
Description: The biological activity of the retinoids can be measured on the F9 cells by quantifying the production of the plasminogen activator secreted consecutively with the differentiation of said cells, caused by the retinoids. CPA50 is the concentration of retinoids causing an induction of 50% of the maximum of the secreted plasminogen activator. By comparing the IC50 and CPA50 values on Table 1, it can be noted that there is an excellent correlation between the affinity of the retinoids for the RARs and their biological activity (see also the straight regression line of FIG. 4). The only exception is retinoic acid itself. […] In effect, the IC50 measurement is carried out after an incubation of 3 hours, while the CPA50 measurement is carried out after a incubation of 3 days.

[2] = test system: retinoic acid nuclear receptors (RARs); assay: Competition with the tritiated compound of example 1 for RARs in F9 cells (HPSEC of nucleosol); format: binding, murine; details: for IC50: competition with 2 nM tritiated compound of example 1, incubation of 3 hours, read-out: AFFINITY RARs:IC50
Protocol: (§1) Cultures of F9 cells of murin embryonic carcinoma (normally four 90 mm dishes containing in total 2-4×10^7 cells per incubation condition) were washed once with PBS (saline phosphate buffer) and incubated for 3 hours in a medium, without serum, supplemented with the marked retinoid in the absence or the presence of a cold retinoid homolog or heterolog (to verify the specificity and for comparison experiments). The cells were then detached with a trypsin EDTA mixture and numbered with a Burker hemocytometer. The nucleosol containing RARs was extracted from the purified nuclei using the method described by Daly and Redfern (1987) (that is, after treatment using DNAase and NaCl 0.6M), and analyzed using high performance exclusion chromatography (HPSEC). 50 μl of marked extract were injected on a 9×250 mm GF250 column (Dupont de Nemours). The elution was carried out in a buffer 0.3M KH2 PO4 pH 7.8 at a rate of 1 ml/min. The protein content was followed by measuring the optical density at 280 nm. 28 fractions of 0.3 ml each were collected and counted in Picofluor (Packard) scintillating agent. For each retinoid concentration, the number of bonded molecules was determined using the surface of the radioactivity peak and the calculated concentration of demi-saturation (C50). […] The dose-response curves and the competition curves were analyzed on a computer through non-linear regression using the various forms of the Clark equation.
In view of its stability and its excellent affinity for the RARs, the compound of example 1 in principle enables the determination by competition of the affinity of no matter which retinoid for the RARs.
The […] profiles are obtained after incubation of the F9 cells with 2×10^-9 M of the compound of example 1 in the absence (- ) or in the presence of 10^-9 M(.quadrature.-.quadrature.), 10^-8 M (- ), 10^-7 M (Δ-Δ), 10^-6 M (- ) of cold competitors. I=the unmarked compound of example 1. RA=retinoic acid. For each competition concentration, the peak surface is expressed as a percentage of the surface obtained with the compound of example 1 without competition.
By measuring the surface of the radioactive peak for each concentration of cold competition, it is possible to trace the competition sigmoids. Data processing of these curves enables the determination of the IC50 (50% inhibiting concentration) of each retinoid.

[3] = test system: retinoic acid nuclear receptors (RARs); assay: Direct fixing of tritiated ligand on RARs of F9 cells (HPSEC of nucleosol); format: binding, murine; details: 200 nM tritiated ligand; for specific fixing on RARs in presence of excess cold homolog ligand: 100-fold excess (20000 nM) cold ligand, FIG. 1; for ligand fixed to the RARs per cell: FIG. 2
Protocol: as §1
When the above-describe method is used and the F9 cells are incubated with the compound of example 1 at a concentration of 200 nM, a single radioactivity peak is observed in the nuclear extract (FIG. 1B). The molecular weight corresponding to the average fraction of the peak is approximately 45 kDa, a number close to the molecular weight of human RARs, as has been calculated from the sequence of their DNAc (Petkovich et al, 1987; Brand et al, 1988), and is compatible with the 4S sedimentation coefficient of murin receptors (Daly & Redfer, 1987). The fixing is specific since it is abolished when the cells are coincubated with an excess of 100 times of the cold compound I (FIG. 1B). There is no CRABP in the nucleosoilc extract of F9, as already underlined by Daly and Redfern (1987).
It can be noted that the radioactive peak elutes at the same position as with the compound of example 1.
The two compounds were used at a concentration of 200 nM. The quantity of ligand bonded to the RARs is expressed in molecules per cell.
To determine the concentration of the compound of example 1 giving 50% saturation of the RARs (C50), a saturation curve has been traced expressing the surface of the radioactive peak as a function of varied concentrations of the compound of example 1. The C50 is between 0.5 and 2 nM.

[4] = target: T1, CRABP (Rattus norvegicus, UniProt P62966); assay: Competition with the claimed marked compound for CRABP; format: binding
T1 construct: rat testicle cytosol containing CRABP; from tissue
Protocol: These competition experiments are carried out in the following manner: a fixed quantity of radioactive ligand (corresponding substantially to the demi-saturation, in our case 4 nM) is mixed with increasing quantities of cold ligand (non-radioactive). Then the binding protein is added and the quantity of radioactive ligand fixed to the balance is determined (in % of the initial fixing in the absence of cold ligand, for the quantity of CRABP under consideration).
From the competition curves, the IC50 (concentration of cold ligand reducing the attachment of the tritiated ligand by 50%) is determined. This IC50 value enables the calculation in each case of the dissociation constant from the balance (Kd) for the cold ligand.

[5] = target: T1, CRABP; assay: Direct fixing (saturation) of tritiated ligand on CRABP in rat testicle cytosol; format: binding; details: for non-specific fixing as part of total fixing on CRABP: 1 μM cold homolog ligand; for concentration of CRABP in rat testicle cytosol found with the marked retinoid: saturating concentration of marked retinoid
Protocol: The difference (- ) represents the specific bond.
The total fixing (non-specific+specific (1-1) is obtained by incubation of increasing concentrations (up to a maximum of 125 nM) of the claimed compound with a constant quantity (0.3 ml) of a rat testicle homogenate (CRABP-rich organ). The non-specific fixing of the tritiated compound is determined in parallel, by measuring the fixing with increasing concentrations of the radioactive ligand in the presence of a large excess (1 μM) of cold homolog ligand (.quadrature.-.quadrature.). An incubation time of two hours is necessary for the establishment of balanced conditions.
Once the balance is achieved, the tritiated CRABP-ligand complex is separated from the non-bonded ligand by filtration on a Sephadex G25 exclusion gel column (BIO-Rad econo columns, 0.5× 20 cm): the complex is eluted (elution peak at 2.5 ml), while the non-bonded ligand is retained in totality on the column. […] The elution is done directly in scintillation tubes and the radioactivity is measured by counting.
The difference between the total fixing curve (- )and the non-specific fixing curve (.quadrature.-.quadrature.) gives the specific fixing curve ( - ). Analysis of this curve provides the dissociation constant with the balance (Kd), which is the concentration of product necessary to saturate 50% of the CRABP. This constant is a measurement of the affinity of the ligand for its binding protein, with the Kd being inversely proportional to the affinity (the lower the Kd, the greater the affinity).
The concentration of CRABP in the rat testicle cytosol used for the experiment can be determined in binding experiments where the marked retinoids are used at a saturating concentration.

[6] = Stability of ligand (general statements); format: physicochemical; details: statement in words, no data
[7] = by radiolysis, oxidation and photolysis; background statement; cited from earlier work
[8] = 72 h, concentration causing induction of 50% of the maximum of secreted plasminogen activator, F9 cells, incubation of 3 days
[9] = Table 1, Kd calculated from competition IC50, radioligand about 4 nM, read-out: AFFINITY CRABP:Kd

T1 sequence (P62966 whole entry): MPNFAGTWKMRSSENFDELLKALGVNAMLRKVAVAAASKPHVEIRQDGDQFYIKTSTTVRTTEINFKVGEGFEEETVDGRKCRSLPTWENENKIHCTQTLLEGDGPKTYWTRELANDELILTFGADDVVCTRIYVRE

EC50 [1, 8] [nM]	Kd [4, 9] [nM]	Compound	IC50 ([2]; F9 cells) [nM]	EC50 ([1]; F9, 72 h) [nM]	Kd [4] [nM]	other results
1	4	CC1(C)CCC(C)(C)c2cc3cc(-c4ccc(C(=O)O)cc4)ccc3cc21 [Compound I, 4-(5,6,7,8-tetrahydro-5,5,8,8-tetramethyl-2-anthracenyl) benzoic acid]	0.8	–	–	affinity for the RARs relative to retinoic acid ([2]; from IC50 of Table 1): six times; specific fixing on RARs in presence of excess cold homolog ligand [3]: abolished
–	–	CC1(C)CCC(C)(C)c2cc(-c3cc4ccc(C(=O)O)cc4s3)ccc21 [Compound IV, 2(5,6,7,8-tetrahydro-5,5,8,8-tetramethyl-2-naphthyl)-6-benzo(b)thiophene carboxylic acid]	77	53	2	–
–	–	CC1(C)CCC(C)(C)c2cc(-c3cc4ccc(C(=O)O)cc4o3)ccc21 [Compound VI, 2(5,6,7,8-tetrahydro-5,5,8,8-tetramethyl-2-naphthyl)-6 benzo(b)furan carboxylic acid]	770	670	200	–
85	200	CC1(C)CCC(C)(C)c2cc(C(=O)Nc3ccc(C(=O)O)cc3)ccc21 [Compound VII, 4(5,6,7,8-tetrahydro-5,5,8,8-tetramethyl-2-naphthamido) benzoic acid]	76	–	–	–
–	–	Cc1c(C(=O)O)cc(S)c2cc(-c3ccc4c(c3)C(C)(C)CCC4(C)C)ccc12 [Compound VIII, 1methyl-4-thiol-6-(5,6,7,8-tetrahydro-5,5,8,8-tetramethyl-2-naphthyl)-2-nphthoic acid]	> 10000	> 10000	200	biological activity (in words) ([1]; F9 cells, FIG. 4): biologically inactive; also recorded: below the threshold of detection; affinity for the RARs (in words) ([2]; F9 cells, FIG. 4): below the threshold of detection
–	–	CC1(C)CCC(C)(C)c2cc3cc(-c4ccc(C(=O)O)cc4)ccc3cc21 [Example 1, 4-(5,6,7,8-tetrahydro-5,5,8,8-tetramethyl-2-anthracenyl) benzoic acid marked with tritium]	–	–	–	ligand fixed to the RARs per cell [3]: approximately 4,000 molecules per cell; character of non-specific fixing on CRABP ([5]; in the range of concentrations used, rat testicle): linear and non-saturable; character of specific fixing on CRABP ([5]; rat testicle): saturable and reversible; non-specific fixing as part of total fixing on CRABP ([5]; rat testicle): less than 10%; concentration of CRABP in rat testicle cytosol found with the marked retinoid [5]: 10-12 pmol/mg protein; stability of the ligand [6]: very stable
–	–	CC1=C(/C=C/C(C)=C/C=C/C(C)=C/C(=O)O)C(C)(C)CCC1 [Retinoic acid]	5	350	–	specific fixing on RARs in presence of excess cold homolog ligand [3]: the peak is not observed; ligand fixed to the RARs per cell [3]: approximately 4,000 molecules per cell; non-specific fixing as part of total fixing on CRABP ([5]; rat testicle): approximately 25%; concentration of CRABP in rat testicle cytosol found with the marked retinoid [5]: 10-12 pmol/mg protein; stability of the ligand [6]: high instability; degradation of retinoic acid [7]: rapidly degraded
2500	600	CC1=C(/C=C/C(C)=C/C=C/C(C)=C/CO)C(C)(C)CCC1 [Retinol]	1400	–	–	–

Compound	EC50 [1, 8] [nM]	Kd [4, 9] [nM]	IC50 ([2]; F9 cells) [nM]	EC50 ([1]; F9, 72 h) [nM]	Kd [4] [nM]	other results
CC1(C)CCC(C)(C)c2cc(-c3ccc4cc(C(=O)O)ccc4c3)ccc21 [Compound V, 6(5,6,7,8-tetrahydro-5,5,8,8-tetramethyl-2-naphthyl)-2-naphthoic acid]	66	20	12	–	–	–
